Results on eight compounds are retold here after ChEMBL document CHEMBL6114951, “Discovery of 3-amide-pyrimidine-based derivatives as potential fms-like tyrosine receptor kinase 3 (FLT3) inhibitors for treating acute myelogenous leukemia” (Bioorg Med Chem Lett, 2025).

Active and inactive are the calls of the source. The rule behind the calls is not given here.

By IC50 is commonly meant the concentration at which inhibition is half-maximal. Lower therefore signals greater potency. As a reminder, the inhibition is the change of the read-out against control, counted positive when it falls.

Data set [1] has as its system MV4-11. As to the kind of experiment: cells. Conditions: Homo sapiens.
Description: Antiproliferative activity against human MV4-11 cells by CCK-8 assay
Another data set relates to A549. Description: cells. Conditions: Homo sapiens.
A further data set concerns HCT-116. Description: cells. The settings on record: Homo sapiens.
For data set [2], the system named is MV4-11. As to the kind of experiment: Cell cycle arrest in human MV4-11 cells assessed as increase in accumulation at G0/G1-phase measured after 24 hrs by propidium iodide staining based flow cytometry. The class given is functional. The settings on record: dose 0.2-10 µM. On the technique in general: Flow cytometry measures light scatter and fluorescence of single cells or particles in a stream.

For a further data set, the target named is c-Kit (Homo sapiens, UniProt P10721). As to the kind of experiment: Inhibition of c-Kit (unknown origin) at 100 uM relative to control. In kind it is toxicity.
For data set [3], the system named is MV4-11. As to the kind of experiment: Cell cycle arrest in human MV4-11 cells assessed as accumulation at G1-phase at 0.2 uM measured after 24 hrs by propidium iodide staining based flow cytometry (reference value: 70.31%). The class given is functional.
Data set [4] relates to MV4-11. Description: Cell cycle arrest in human MV4-11 cells assessed as accumulation at G2-phase at 0.2 uM measured after 24 hrs by propidium iodide staining based flow cytometry (reference value: 8.87%). In kind it is functional.
Data set [5] relates to MV4-11. Description: Cell cycle arrest in human MV4-11 cells assessed as accumulation at S-phase at 0.2 uM measured after 24 hrs by propidium iodide staining based flow cytometry (reference value: 20.83%). The class given is functional.
The test system of data set [6] is MV4-11. As to the kind of experiment: Cell cycle arrest in human MV4-11 cells assessed as accumulation at G1-phase at 2 uM measured after 24 hrs by propidium iodide staining based flow cytometry (reference value: 70.31%). In kind it is functional.
In data set [7] the test system is MV4-11. As to the kind of experiment: Cell cycle arrest in human MV4-11 cells assessed as accumulation at G2-phase at 2 uM measured after 24 hrs by propidium iodide staining based flow cytometry (reference value: 8.87%). In kind it is functional.
The subject of data set [8] is MV4-11. Description: Cell cycle arrest in human MV4-11 cells assessed as accumulation at S-phase at 2 uM measured after 24 hrs by propidium iodide staining based flow cytometry (reference value: 20.83%). In kind it is functional.
The subject of data set [9] is MV4-11. Description: Cell cycle arrest in human MV4-11 cells assessed as accumulation at G1-phase at 10 uM measured after 24 hrs by propidium iodide staining based flow cytometry (reference value: 70.31%). In kind it is functional.
For data set [10], the system named is MV4-11. As to the kind of experiment: Cell cycle arrest in human MV4-11 cells assessed as accumulation at G2-phase at 10 uM measured after 24 hrs by propidium iodide staining based flow cytometry (reference value: 8.87%). The class given is functional.
The subject of data set [11] is MV4-11. Description: Cell cycle arrest in human MV4-11 cells assessed as accumulation at S-phase at 10 uM measured after 24 hrs by propidium iodide staining based flow cytometry (reference value: 20.83%). In kind it is functional.
In data set [12] the test system is MV4-11. As to the kind of experiment: Induction of morphological changes in human MV4-11 cells assessed as cell wrinkling. In kind it is functional, cell-based.
In data set [13] the test system is MV4-11. Description: Induction of morphological changes in human MV4-11 cells assessed as cell fragmentation. In kind it is functional, cell-based.
The subject of data set [14] is MV4-11. Description: Induction of apoptosis in human MV4-11 cells measured after 24 hrs by Annexin V-FITC/propidium iodide staining based flow cytometry. The settings on record: dose 0.2-5 µM. The class given is functional, cell-based.
For data set [15], the system named is MV4-11. Description: Induction of apoptosis in human MV4-11 cells assessed as viable cells at 0.2 uM measured after 24 hrs by Annexin V-FITC/propidium iodide staining based flow cytometry (reference value: 92.7%). In kind it is functional. The settings on record: read-out: Activity.
For data set [16], the system named is MV4-11. Description: Induction of apoptosis in human MV4-11 cells assessed as early apoptotic cells at 0.2 uM measured after 24 hrs by Annexin V-FITC/propidium iodide staining based flow cytometry (reference value: 5.2%). The class given is functional.
Data set [17] deals with MV4-11. As to the kind of experiment: Induction of apoptosis in human MV4-11 cells assessed as late apoptotic cells at 0.2 uM measured after 24 hrs by Annexin V-FITC/propidium iodide staining based flow cytometry (reference value: 2%). The class given is functional.
Data set [18] deals with MV4-11. Description: Induction of apoptosis in human MV4-11 cells assessed as necrotic cells at 0.2 uM measured after 24 hrs by Annexin V-FITC/propidium iodide staining based flow cytometry (reference value: 0.2%). In kind it is functional.
The test system of data set [19] is MV4-11. As to the kind of experiment: Induction of apoptosis in human MV4-11 cells assessed as viable cells at 2 uM measured after 24 hrs by Annexin V-FITC/propidium iodide staining based flow cytometry (reference value: 92.7%). The class given is functional. The settings on record: read-out: Activity.
Data set [20] concerns MV4-11. Description: Induction of apoptosis in human MV4-11 cells assessed as viable cells at 5 uM measured after 24 hrs by Annexin V-FITC/propidium iodide staining based flow cytometry (reference value: 92.7%). In kind it is functional. Conditions: read-out: Activity.
Data set [21] deals with MV4-11. Description: Induction of apoptosis in human MV4-11 cells assessed as early apoptotic cells at 2 uM measured after 24 hrs by Annexin V-FITC/propidium iodide staining based flow cytometry (reference value: 5.2%). The class given is functional.
The test system of data set [22] is MV4-11. Description: Induction of apoptosis in human MV4-11 cells assessed as late apoptotic cells at 2 uM measured after 24 hrs by Annexin V-FITC/propidium iodide staining based flow cytometry (reference value: 2%). In kind it is functional.
Data set [23] relates to MV4-11. Description: Induction of apoptosis in human MV4-11 cells assessed as necrotic cells at 2 uM measured after 24 hrs by Annexin V-FITC/propidium iodide staining based flow cytometry (reference value: 0.2%). In kind it is functional.
Data set [24] relates to MV4-11. As to the kind of experiment: Induction of apoptosis in human MV4-11 cells assessed as early apoptotic cells at 5 uM measured after 24 hrs by Annexin V-FITC/propidium iodide staining based flow cytometry (reference value: 5.2%). In kind it is functional.
The subject of data set [25] is MV4-11. Description: Induction of apoptosis in human MV4-11 cells assessed as late apoptotic cells at 5 uM measured after 24 hrs by Annexin V-FITC/propidium iodide staining based flow cytometry (reference value: 2%). The class given is functional.
The test system of data set [26] is MV4-11. Description: Induction of apoptosis in human MV4-11 cells assessed as necrotic cells at 5 uM measured after 24 hrs by Annexin V-FITC/propidium iodide staining based flow cytometry (reference value: 0.2%). The class given is functional.
In data set [27] the test system is MV4-11. As to the kind of experiment: Induction of mitochondrial membrane potential loss in human MV4-11 cells measured after 24 hrs by JC-1 staining based flow cytometry. Conditions: dose 0.2-10 µM. In kind it is functional, cell-based.
In data set [28] the test system is MV4-11. As to the kind of experiment: Induction of mitochondrial membrane potential loss in human MV4-11 cells assessed as cells with high MMP (aggregates) at 0.2 uM measured after 24 hrs by JC-1 staining based flow cytometry (reference value: 97%). The class given is functional.
The subject of data set [29] is MV4-11. As to the kind of experiment: Induction of mitochondrial membrane potential loss in human MV4-11 cells assessed as cells with low MMP (monomers) at 0.2 uM measured after 24 hrs by JC-1 staining based flow cytometry (reference value: 2.9%). The class given is functional.
Data set [30] has as its system MV4-11. Description: Induction of mitochondrial membrane potential loss in human MV4-11 cells assessed as cells with high MMP (aggregates) at 2 uM measured after 24 hrs by JC-1 staining based flow cytometry (reference value: 97%). The class given is functional.
Data set [31] concerns MV4-11. Description: Induction of mitochondrial membrane potential loss in human MV4-11 cells assessed as cells with low MMP (monomers) at 2 uM measured after 24 hrs by JC-1 staining based flow cytometry (reference value: 2.9%). The class given is functional.
The test system of data set [32] is MV4-11. As to the kind of experiment: Induction of mitochondrial membrane potential loss in human MV4-11 cells assessed as cells with high MMP (aggregates) at 10 uM measured after 24 hrs by JC-1 staining based flow cytometry (reference value: 97%). The class given is functional.
The test system of data set [33] is MV4-11. As to the kind of experiment: Induction of mitochondrial membrane potential loss in human MV4-11 cells assessed as cells with low MMP (monomers) at 10 uM measured after 24 hrs by JC-1 staining based flow cytometry (reference value: 2.9%). The class given is functional.
In data set [34] the target is Mast/stem cell growth factor receptor Kit (Homo sapiens, UniProt P10721).
Another data set is described as follows: in vitro. Conditions: human, HEK293T cells.

Mast/stem cell growth factor receptor Kit, sequence (P10721 whole entry): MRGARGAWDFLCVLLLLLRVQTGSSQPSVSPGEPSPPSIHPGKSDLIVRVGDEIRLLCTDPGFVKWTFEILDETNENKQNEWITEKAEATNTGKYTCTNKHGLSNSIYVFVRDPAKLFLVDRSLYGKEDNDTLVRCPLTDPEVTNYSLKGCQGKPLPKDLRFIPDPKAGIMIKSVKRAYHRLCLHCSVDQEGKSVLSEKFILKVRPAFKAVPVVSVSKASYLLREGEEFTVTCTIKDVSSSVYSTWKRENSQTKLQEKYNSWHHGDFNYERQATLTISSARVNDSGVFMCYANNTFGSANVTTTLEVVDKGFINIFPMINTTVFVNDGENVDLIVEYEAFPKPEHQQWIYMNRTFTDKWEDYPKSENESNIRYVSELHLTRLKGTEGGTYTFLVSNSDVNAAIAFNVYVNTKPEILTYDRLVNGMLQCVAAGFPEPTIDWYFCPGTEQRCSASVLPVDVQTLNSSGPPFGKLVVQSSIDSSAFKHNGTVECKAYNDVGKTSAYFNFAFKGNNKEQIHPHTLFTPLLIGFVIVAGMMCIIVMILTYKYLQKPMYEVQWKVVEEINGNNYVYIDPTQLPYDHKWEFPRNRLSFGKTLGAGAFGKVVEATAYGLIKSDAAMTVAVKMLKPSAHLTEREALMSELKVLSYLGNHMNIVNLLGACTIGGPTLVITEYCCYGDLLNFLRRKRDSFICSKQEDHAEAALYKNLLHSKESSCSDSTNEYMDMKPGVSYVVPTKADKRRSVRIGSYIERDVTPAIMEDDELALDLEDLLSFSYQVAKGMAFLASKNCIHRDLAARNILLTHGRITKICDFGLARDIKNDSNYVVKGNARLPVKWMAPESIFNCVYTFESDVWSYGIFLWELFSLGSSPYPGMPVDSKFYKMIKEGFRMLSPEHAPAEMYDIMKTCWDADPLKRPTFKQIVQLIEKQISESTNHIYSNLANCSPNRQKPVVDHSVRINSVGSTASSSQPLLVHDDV
c-Kit, sequence (P10721 whole entry): as above
Description for A549: Antiproliferative activity against human A549 cells by CCK-8 assay
Description for HCT-116: Antiproliferative activity against human HCT-116 cells by CCK-8 assay
Description for in vitro: Cytotoxicity against HEK293T cells by CCK-8 assay

`NC(=O)c1cnc(N2CCCC2)nc1Nc1ccc(Oc2ccccc2)cc1`: the values for the IC50 with MV4-11 [1], in the data set with A549 and in the data set on HCT-116 were 35.8 µM, 10.6 µM and over 50 µM, respectively.

For `CC(C)N1CCC(Nc2ncc(C#N)c(Nc3ccc(Oc4ccccc4)cc3)n2)CC1`, the IC50 was 7.19 µM in the data set on MV4-11 [1], over 50 µM with A549 and over 50 µM in the data set on HCT-116.

In the case of `CC(=O)N1CCC(Nc2nc(Nc3ccc(Oc4ccccc4)cc3)c3ccccc3n2)CC1`, the IC50 in the data set on MV4-11 [1] stood at 6.96 µM; with A549, 9.87 µM; in the data set with HCT-116, 24.2 µM.

Consider `CN1CCC(Nc2ncc(C#N)c(Nc3ccc(Oc4ccccc4)cc3)n2)CC1`, for which the IC50 in the data set with MV4-11 [1] was 12.5 µM; in the data set on A549, over 50 µM; in the data set on HCT-116 it was 8.99 µM.

As for `CN1CCC(N(C)c2ncc(C#N)c(Nc3ccc(Oc4ccccc4)cc3)n2)CC1`, the IC50 with MV4-11 [1] worked out at 2.09 µM; in the data set with A549, 12.5 µM; with HCT-116, 5.99 µM.

As for `CC(C)N1CCC(Nc2ncc(C(N)=O)c(Nc3ccc(Oc4ccccc4)cc3)n2)CC1`, the Activity entry with MV4-11 [2] was “Dose-dependent-effect”; in the data set on MV4-11 [3], 75.47%; in the data set on MV4-11 [4] it was 4.45%; with MV4-11 [5] it was 20.08%; in the data set on MV4-11 [6], 82.96%; in the data set with MV4-11 [7] it was 5.41%. Also, the Activity in the data set on MV4-11 [8] was 11.9%; in the data set with MV4-11 [9], 89.91%; with MV4-11 [10], 5.7%; with MV4-11 [11] it was 4.39%; in the data set with MV4-11 [14], “Dose-dependent-effect”; in the data set with MV4-11 [16], 15.1%. The Activity came out at 6% in the data set on MV4-11 [17]; 0.3% in the data set on MV4-11 [18]; 50.5% in the data set with MV4-11 [21]; 16.4% in the data set with MV4-11 [22]; 0.3% with MV4-11 [23]; 51.7% in the data set on MV4-11 [24]. Besides, the Activity with MV4-11 [25] is 35.8%; in the data set with MV4-11 [26], 0.8%; in the data set on MV4-11 [27], “Dose-dependent-effect”; in the data set on MV4-11 [28], 96.2%; in the data set on MV4-11 [29], 3.8%; with MV4-11 [30], 94.9%. For the same compound, the Activity was 5% with MV4-11 [31], 86.6% with MV4-11 [32] and 13.1% in the data set on MV4-11 [33]. On c-Kit, this compound gave an inhibition at 100 µM of 17.5%. Further, the outcome with MV4-11 [12] and with MV4-11 [13] was Active. Further, the viability at 0.2 µM with MV4-11 [15] was determined as 78.5%. The viability at 2 µM in the data set on MV4-11 [19] turned out to be 32.8%. In the data set on MV4-11 [20], the viability at 5 µM amounted to 11.7%. The IC50 was over 100 µM in [34]; 0.59 µM with MV4-11 [1]; 7.73 µM in the data set with A549; 3.14 µM in the data set on HCT-116; 40.2 µM in the data set “in vitro”.

On to `CN1CCC(Nc2ncc(C(N)=O)c(Nc3ccc(Oc4ccccc4)cc3)n2)CC1`, for which the values for the IC50 with MV4-11 [1], with A549 and in the data set with HCT-116 were 2.09 µM, 2.88 µM and 1.9 µM, respectively.

Turning to `CN1CCC(N(C)c2ncc(C(N)=O)c(Nc3ccc(Oc4ccccc4)cc3)n2)CC1`, the IC50 is 0.66 µM in the data set on MV4-11 [1], 7.67 µM in the data set with A549 and 3.93 µM with HCT-116.
